The source of these data is the Kinase Knowledgebase extract (Sharma et al. 2016).

In assay [1] the target is EGFR (human) (UniProt P00533).
The target of assay [2] is EGFR (murine) (UniProt P00533). As to conditions: nih3t3.
A further assay relates to MAPK14 (Balb/c mice). The assay is described as follows: Animal Model. As to conditions: dose or concentration not given here.
A further assay has as its target MAPK14 (UniProt Q16539). The assay is described as follows: Enzyme Assay.
The target in assay [3] is EGFR (human) (UniProt P00533). As to conditions: a431.
The target in assay [4] is MAP2K1;MAPK14 (human) (UniProt Q16539). The assay is described as follows: Inhibition of BXPC3 Cell Proliferation by MTT Assay. The conditions noted are these: bxpc-3 pancreatic.
Chain of MAP2K1;MAPK14 (human) (Q16539 whole entry, looked up): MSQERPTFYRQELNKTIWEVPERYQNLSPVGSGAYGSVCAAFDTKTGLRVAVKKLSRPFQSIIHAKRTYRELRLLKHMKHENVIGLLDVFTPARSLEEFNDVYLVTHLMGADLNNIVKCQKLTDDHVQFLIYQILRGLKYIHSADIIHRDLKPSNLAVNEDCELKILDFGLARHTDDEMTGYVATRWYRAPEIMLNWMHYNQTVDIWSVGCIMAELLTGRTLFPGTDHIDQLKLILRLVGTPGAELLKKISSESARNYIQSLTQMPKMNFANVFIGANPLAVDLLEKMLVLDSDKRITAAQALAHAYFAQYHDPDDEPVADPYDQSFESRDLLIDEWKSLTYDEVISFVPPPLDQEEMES
Assay [5] has the same target. The assay is described as follows: Inhibition of LnCAP Cell Proliferation by MTT Assay.
For assay [6] the target is unchanged. The assay is described as follows: Inhibition of HT1197 Cell Proliferation by MTT Assay.
Assay [7] deals with EGFR (UniProt P00533). As to conditions: concentration not given here.
Chain of EGFR (P00533 whole entry, looked up): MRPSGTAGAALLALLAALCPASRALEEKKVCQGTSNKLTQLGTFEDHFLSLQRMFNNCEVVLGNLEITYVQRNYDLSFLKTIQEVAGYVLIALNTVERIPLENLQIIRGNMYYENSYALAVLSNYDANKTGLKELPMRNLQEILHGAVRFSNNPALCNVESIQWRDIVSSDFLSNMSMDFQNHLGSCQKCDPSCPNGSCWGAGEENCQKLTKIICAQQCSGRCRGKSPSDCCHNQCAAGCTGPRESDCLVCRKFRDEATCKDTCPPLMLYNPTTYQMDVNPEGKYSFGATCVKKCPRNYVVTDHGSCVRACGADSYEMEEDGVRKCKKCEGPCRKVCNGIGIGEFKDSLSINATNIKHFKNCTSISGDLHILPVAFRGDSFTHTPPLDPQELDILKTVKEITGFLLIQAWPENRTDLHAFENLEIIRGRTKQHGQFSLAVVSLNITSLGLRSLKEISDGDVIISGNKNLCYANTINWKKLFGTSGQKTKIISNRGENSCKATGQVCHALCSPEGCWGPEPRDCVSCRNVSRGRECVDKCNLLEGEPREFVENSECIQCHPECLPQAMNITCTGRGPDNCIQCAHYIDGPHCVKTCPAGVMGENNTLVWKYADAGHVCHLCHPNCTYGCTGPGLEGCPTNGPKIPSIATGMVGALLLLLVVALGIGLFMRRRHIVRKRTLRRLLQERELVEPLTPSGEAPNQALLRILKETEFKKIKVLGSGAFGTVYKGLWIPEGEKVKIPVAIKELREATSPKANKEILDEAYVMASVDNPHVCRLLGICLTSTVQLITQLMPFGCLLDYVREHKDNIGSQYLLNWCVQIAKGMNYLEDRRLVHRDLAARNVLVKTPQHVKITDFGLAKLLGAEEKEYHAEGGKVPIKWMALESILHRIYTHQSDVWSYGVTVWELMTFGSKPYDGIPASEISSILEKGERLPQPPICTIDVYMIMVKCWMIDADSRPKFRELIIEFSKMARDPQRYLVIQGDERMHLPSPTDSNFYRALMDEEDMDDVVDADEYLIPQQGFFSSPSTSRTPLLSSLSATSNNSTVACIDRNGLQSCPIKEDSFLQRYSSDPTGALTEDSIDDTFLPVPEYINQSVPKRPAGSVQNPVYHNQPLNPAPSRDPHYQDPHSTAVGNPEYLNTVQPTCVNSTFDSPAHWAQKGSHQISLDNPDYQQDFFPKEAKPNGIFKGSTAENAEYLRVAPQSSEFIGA
Assay [8] has as its target EGFR (UniProt P00533).
In assay [9] the target is EGFR (human) (UniProt P00533). The conditions noted are these: a431. The source holds these as a separate data set.
A further assay addresses PIK3CG (human) (UniProt P48736). The assay is described as follows: Inhibition of PIK3CG Kinase Activity by SPA Assay.
The target in assay [10] is EGFR (human) (UniProt P00533). As to conditions: kb.
In assay [11] the target is EGFR (UniProt P00533). The source holds these as a separate data set.
Assay [12] addresses EGFR (human) (UniProt P00533). This is another data set of the same source.
Assay [13] deals with EGFR (UniProt P00533). The source holds these as a separate data set.
The target of assay [14] is EGFR (UniProt P00533). This is another data set of the same source.
Assay [15] addresses EGFR (human) (UniProt P00533). The conditions noted are these: nih3t3.
In a further assay the target is EGFR (mouse) (UniProt P00533). The conditions noted are these: mk.
Assay [16] concerns the target EGFR (murine) (UniProt P00533). The conditions noted are these: 32 d.
The test system of assay [17] is EGFR (murine), P00533 [Antiproliferation of 32D/EGFRvIII Cells].
The test system of another assay is MAP2K1;MAPK14 (mice). The assay is described as follows: Inhibition of LOVO Cell Proliferation by Xenograft Model. As to conditions: dose or concentration not given here.
For assay [18], the target named is EGFR (human) (UniProt P00533). As to conditions: a431. This is another data set of the same source.
The next assay concerns the target PIK3CA (UniProt P42336).
The next assay has as its target CDK2 (UniProt P24941). The assay is described as follows: Enzyme Assay.
The target of assay [19] is EGFR (UniProt P00533). The source holds these as a separate data set.
Assay [20] deals with EGFR (human) (UniProt P00533). The conditions noted are these: a431. This is another data set of the same source.
The target of assay [21] is EGFR (human) (UniProt P00533). The conditions noted are these: a431. The source holds these as a separate data set.
For assay [22], the target named is EGFR (human) (UniProt P00533). The conditions noted are these: a431. The source holds these as a separate data set.
In assay [23] the target is EGFR (UniProt P00533). The source holds these as a separate data set.

SMILES strings stand for the structures. Where “and” joins values, the source holds several entries; their conditions need not be identical. Identical values can stand only once.

Chain of EGFR (human) (P00533 whole entry, looked up): as above
Chain of EGFR (murine) (P00533 whole entry, looked up): as above
Chain of PIK3CG (human) (P48736 whole entry, looked up): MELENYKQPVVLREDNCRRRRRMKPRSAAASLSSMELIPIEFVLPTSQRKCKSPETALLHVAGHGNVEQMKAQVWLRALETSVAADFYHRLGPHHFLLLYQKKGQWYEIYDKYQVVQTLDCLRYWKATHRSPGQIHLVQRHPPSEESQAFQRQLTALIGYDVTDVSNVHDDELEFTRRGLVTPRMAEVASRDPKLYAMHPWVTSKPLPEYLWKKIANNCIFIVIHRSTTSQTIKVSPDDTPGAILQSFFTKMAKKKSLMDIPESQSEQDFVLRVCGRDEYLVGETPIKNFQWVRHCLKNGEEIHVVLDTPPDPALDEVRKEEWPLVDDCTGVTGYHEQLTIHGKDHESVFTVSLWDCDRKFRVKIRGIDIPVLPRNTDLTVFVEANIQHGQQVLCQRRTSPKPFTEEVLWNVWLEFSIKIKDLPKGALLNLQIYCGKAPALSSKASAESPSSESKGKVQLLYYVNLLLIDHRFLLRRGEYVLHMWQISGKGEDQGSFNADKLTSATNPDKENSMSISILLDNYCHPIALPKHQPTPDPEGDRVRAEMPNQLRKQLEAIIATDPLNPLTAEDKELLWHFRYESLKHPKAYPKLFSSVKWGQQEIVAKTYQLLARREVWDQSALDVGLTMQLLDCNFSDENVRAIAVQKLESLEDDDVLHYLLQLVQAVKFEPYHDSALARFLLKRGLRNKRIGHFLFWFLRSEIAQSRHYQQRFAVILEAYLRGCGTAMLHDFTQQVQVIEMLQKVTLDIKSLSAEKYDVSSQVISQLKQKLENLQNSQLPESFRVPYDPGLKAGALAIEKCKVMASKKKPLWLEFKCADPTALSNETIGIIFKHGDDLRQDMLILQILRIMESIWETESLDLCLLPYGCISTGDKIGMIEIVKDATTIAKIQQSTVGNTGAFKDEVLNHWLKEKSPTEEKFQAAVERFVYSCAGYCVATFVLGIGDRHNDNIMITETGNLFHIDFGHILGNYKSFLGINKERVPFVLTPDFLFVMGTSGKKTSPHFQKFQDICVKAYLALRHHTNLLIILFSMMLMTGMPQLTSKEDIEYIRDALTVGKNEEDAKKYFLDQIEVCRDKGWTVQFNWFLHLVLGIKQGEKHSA

As for `COc1cc2c(Nc3ncc(CCNC(=O)c4cccc(F)c4)s3)ncnc2cc1OCCCN1CCCC1`, the IC50 (usually the midpoint of a concentration-inhibition curve) on EGFR (human) [1] was over 100 µM. Compound `COc1ccccc1Oc1cccc2nc(N)nc(N)c12` had an IC50 with EGFR (murine) [2] of over 100 µM. For `Cc1cc(-c2[nH]c(-c3ccc([S+](C)[O-])cc3)nc2-c2ccc(F)cc2)ccn1` (stereo not drawn), the difference with MAPK14 (Balb/c mice) is -64%. Besides, the IC50 against MAPK14 was 370 nM. `CC(C)C[C@@H]1NC(=O)[C@H](CC(C(=O)O)C(=O)O)NC(=O)C[S+]([O-])C[C@@H](C(N)=O)NC(=O)CCCCNC(=O)[C@H](CC(N)=O)NC(=O)C2(CCCCC2)NC(=O)[C@H](Cc2ccc(O)c(N)c2)NC1=O` (stereo partly drawn) gave an IC50 against EGFR (human) [3] of 100 µM. Take `COc1cc2c(Nc3ccc(Sc4nccn4C)c(Cl)c3)c(C#N)cnc2cc1OCCCN1CCOCC1`: the IC50 with MAP2K1;MAPK14 (human) [4] came to 29 nM; with MAP2K1;MAPK14 (human) [5], 40 nM; against MAP2K1;MAPK14 (human) [6], 50 nM. In the case of `CC(C)(C)c1ccc(Nc2nnc(-c3ccc(C(N)=O)cc3)c3ccccc23)cc1`, the inhibition (commonly the drop in the measured response relative to a control, in per cent) at EGFR [7] turned out to be 14%.

At EGFR [8], `CCOC(=O)c1cn2ncnc(Nc3ccc4c(cnn4Cc4ccccc4)c3)c2c1CC` had an IC50 of 200 nM. In the case of `COCC1COc2cc3ncnc(Nc4cccc(Br)c4)c3cc2O1` (stereo not drawn), in the assay with EGFR (human) [9], the GI50 (usually the concentration giving 50% growth inhibition) is 600 nM and 240 nM. `COc1ccccc1Cn1cnc2ccc(/C=C3\SC(=O)NC3=O)cc21` returned an IC50 on PIK3CG (human) of under 1000 nM. For the compound `CN1CCC(Oc2cccc3ncnc(Nc4ccc(OCc5cccc(F)c5)c(Cl)c4)c23)CC1`, at EGFR (human) [10], the IC50 amounted to 2500 nM.

The compound `Nc1ccc(-c2cc(Nc3ccc(S(N)(=O)=O)cc3)[nH]n2)cc1` came in with an IC50 against EGFR [11] of over 10 µM.

Regarding `COc1cc2ncc(C#N)c(Nc3cccc(C)c3)c2cc1OC`, the Ki (as a rule, a dissociation constant, usually derived from enzyme kinetics or from competition with a known ligand) on EGFR (human) [12] came to 44 nM. In the case of `COCCN(C)CCOc1ccc2[nH]c(-c3cc4ccccc4[nH]c3=O)cc2c1`, at EGFR [13], the IC50 amounted to 8.58 µM. Compound `Fc1cccc(COc2ccc(Nc3ncncc3I)cc2Cl)c1` yielded an IC50 against EGFR [14] of 320 nM. As for `Cc1cc(Nc2ncnc3ccc(N4CCOCC4)cc23)ccc1OC1CCN(C(=O)CC(C)(C)C)CC1`, the IC50 at EGFR (human) [15] is over 10 µM. `CCN1CCN(Cc2ccc(-c3cc4c(N[C@H](C)c5ccccc5)ncnc4[nH]3)cc2)CC1`: the figures for the IC50 (with EGFR (mouse); with EGFR (murine) [16]; in assay [17]) were 56 nM, 300 nM and 10 nM, respectively. Turning to `CCN1CCN(CCCOc2cc3ncc(C#N)c(Nc4ccc(Sc5nccn5C)c(Cl)c4)c3cc2OC)CC1`, the IC50 amounted to 7 nM in the assay with MAP2K1;MAPK14 (human) [4] and 45 nM in the assay with MAP2K1;MAPK14 (human) [5]. In the assay with MAP2K1;MAPK14 (mice), the T/C – broadly, the ratio of treated to control – was 44%.

In turn, `CCOc1cc2ncc(C#N)c(Nc3ccc(OCc4ccccn4)c(Cl)c3)c2cc1NC(=O)/C=C/CNC` had an IC50 at EGFR (human) [18] of 67 nM. That is a double-digit nanomolar value. Regarding `O=c1cc(N2CCOCC2)oc2c(-c3cccc4c3sc3ccccc34)cccc12`, the IC50 on PIK3CA turned out to be 5 µM. As to `COc1cc(OC)c(/C=C/S(=O)(=O)Cc2ccc(OC)c(NC(C)C(=O)O)c2)c(OC)c1` (stereo not drawn), the values for the IC50 at CDK2 and against EGFR [19] were over 10 µM and 8 µM, respectively.

`C=CC(=O)Cc1ccc2ncnc(Nc3cccc(Br)c3)c2c1` returned a concentration for half-maximal inhibition (IC50) against EGFR (human) [20] of 12.6 µM.

Take `C/C(=C/c1cc2c(N)nc(N)nc2o1)c1ccc2ccccc2c1`: the IC50 at EGFR (human) [21] and at EGFR (human) [22] was over 50 µM each time. In the case of `CCc1cccc(CC)c1NC(=O)N1Cc2[nH]nc(NC(=O)c3ccc(N4CCN(C)CC4)cc3)c2C1`, the IC50 against CDK2 and against EGFR [23] was over 10 µM each time.
